Our source for the Ki and EC50 values is US20050124683A1, “HIV protease inhibitors, compositions containing the same, their pharmaceutical uses and materials for their synthesis” (priority 2003, published 2005).

Where two headings read alike, the source gives them in different places.

One assay deals with T1, HIV-1 protease (Human immunodeficiency virus type 1 group M subtype B, UniProt P04585, Q495S).
T1 construct: made in house
In words: HIV-1 Protease RET assay (Ki, resonance energy transfer). It counts as biochemical. The note with it: Q7S mutant HIV-1 protease; read-out: Ki (nm). How it is done: Ki's for the inhibitors of HIV-1 protease were determined using a resonance energy transfer (RET) assay. […] This enzyme is first partially purified as inclusion bodies from cell lysate. It is then solublized in 8M urea and passed through a Q-Sepharose column (Pharmacia) for further purification. To refold this protein, samples containing Q7S is dialyzed into 50 mM sodium phosphate pH 7.0, 50 mM NaCl, 10 mM DTT, and 10% glycerol.
The commercially available peptide substrate (Molecular Probes Cat. # H-2930) RE(EDANS)SQNYPIVQK(DABCYL)R is used to assess activity and Ki's. This peptide is cleaved quantitatively by HIV-1 Pr at the Tyr-Pro bond. The EDANS fluorophore absorbs at 340 nm and emits at 490 nm. The reaction is carried out in a 96 well plate in a total volume of 100 µL and is run for 12 minutes at 37C under steady-state conditions with 5 µM substrate and 2 nM active dimer enzyme concentration. The literature value Km for this substrate and enzyme is 103+/−8 μM (See Matayoshi, et al., “Novel Fluorogenic Substrates for Assaying Retroviral Proteases by Resonance Energy Transfer,” Science 247, 954 (1990)). The buffer for this reaction is 0.1M sodium acetate pH 4.8, 1M NaCl, 1 mM EDTA, 5 mM dithiothreitol, 10% dimethyl sulfoxide and 1 mg/ml bovine serum albumin. Inhibition curves are fit using the Morrison tight binding equation.

The next assay concerns HIV-1. In words: Antiviral EC50 in HIV-infected T-cell lines (CPE inhibition / susceptibility assays). It counts as cell-based. The conditions noted are these: Human immunodeficiency virus 1, T-cell. On the procedure: T-cell lines, CEM-SS, and MT-2, and viruses HIV-1 RF and HIV-1 NL4-3 (pNL4-3) were obtained from the National Institutes of Health (AIDS Research and Reference Reagent Program, Bethesda, MD).
The ability of compounds to protect cells against HIV infection was measured by the […] dye reduction method, essentially as described (See Pauwels, R. Balzarini, J. Baba, M. Snoeck, R. Schols, D. Herdewijn, P. Desmyter, J. and De Clercq, E. 1988, “Rapid and automated tetrazolium-based colorimetric assay for the detection of anti-HIV compounds,”. J Virol. Methods., 20: 309-321 and Weislow, O. S. Kiser, R. Fine, D. L. Bader, J. Shoemaker, R. H. and Boyd, M. R. 1989. “New soluble-formazan assay for HIV-1 cytopathic effects: application to high-flux screening of synthetic and natural products for AIDS-antiviral activity”. J. Natl. Cancer Inst. 81:577-586). Subject cells were infected with test virus at an moi of 0.025 to 0.819 or mock infected with medium only and added at 2×10^4 cells per well into 96 well plates containing half-log dilutions of test compounds. Six days later, 50 μl of XTT (1 mg/ml XTT tetrazolium, […] phenazine methosulfate) was added to the wells and the plate was reincubated for four hours. Viability, as determined by the amount of XTT formazan produced, was quantified spectrophotometrically by absorbance at 450 nm. Data from CPE assays were expressed as the percent of formazan produced in compound-treated cells compared to formazan produced in wells of uninfected, compound-free cells. The fifty percent effective concentration (EC50) was calculated as the concentration of compound that effected an increase in the percentage of formazan production in infected, compound-treated cells to 50% of that produced by uninfected, compound-free cells. The 50% cytotoxicity concentration (CC50) was calculated as the concentration of compound that decreased the percentage of formazan produced in uninfected, compound-treated cells to 50% of that produced in uninfected, compound-free cells. The therapeutic index was calculated by dividing the cytotoxicity (CC50) by the antiviral activity (EC50).
Compounds were tested in phenotypic susceptibility assays at Virologic, Inc., (See Petropoulos C. J., Parkin N. T., Limoli K. L., Lie Y. S., Wrin T., Huang W., Tian H., Smith D., Winslow G. A., Capon D J, Whitcomb J M. 2000, “A novel phenotypic drug susceptibility assay for human immunodeficiency virus type 1,” Antimicrob Agents Chemother 44(4):920-928) or using the assay described here. MT-2 cells were infected with either HIV-1 NL4-3 or HIV-1 NL4-3(I84V/L90M) and incubated in the presence of serial 0.5 log dilutions of test compounds. Three days later, culture supernatants were collected and virus production, as determined by p24 ELISA, was assayed. Percent inhibition was calculated as p24 concentration in compound-treated samples as compared to infected, compound-free controls. Inhibition of viral replication is determined by measuring reduction in HIV p24 present in the culture supernatant, using a Beckman-Coulter p24 HIV-1 Ag EIA kit and following the supplied protocol. Absorbance is read on a MRX microplate reader (Dynex Technologies). The EC50 was calculated as the concentration of compound that effected a decrease in the p24 production by infected, compound-treated cells to 50% of that produced by infected, compound-free cells.

[1] abbreviates: read-out: EC50 (wt) (nm), wt virus.
The mark [2] stands for this setting: read-out: Ave. EC50, average, unit inferred.

Turning to `Cc1ccccc1CNC(=O)[C@H]1N(C(=O)[C@@H](O)[C@H](Cc2cccc(F)c2)NC(=O)c2cccc(O)c2C)CC(F)(F)C1(C)C`, the Ki (in general, a dissociation constant, usually derived from enzyme kinetics or from competition with a known ligand) at HIV-1 protease is below 0.1 nM. Besides, the EC50 (usually the midpoint of the concentration-response curve) in the assay on HIV-1 (setting [1]) worked out at 17 nM.
For `C=CCNC(=O)[C@H]1N(C(=O)[C@@H](O)[C@H](Cc2ccccc2)NC(=O)c2cccc3c2CCN3)CC(F)(F)C1(C)C`, in that order: below 0.1 nM and 16 nM.
As for `C=CCNC(=O)[C@H]1N(C(=O)[C@@H](O)[C@H](Cc2cccc(C(F)(F)F)c2)NC(=O)c2cccc(O)c2C)CC(F)(F)C1(C)C`, the Ki at HIV-1 protease is below 0.1 nM. Also, the EC50 with HIV-1 (setting [1]) was 42 nM.
As to `C=CCNC(=O)[C@H]1N(C(=O)[C@@H](O)[C@H](Cc2cccc(F)c2)NC(=O)c2cc(C)cc(O)c2C)CC(F)(F)C1(C)C`, the Ki at HIV-1 protease is below 0.1 nM. In addition, the EC50 with HIV-1 (setting [1]) was 25 nM.
For `Cc1cc(O)c(C)c(C(=O)N[C@@H](Cc2cccc(F)c2)[C@H](O)C(=O)N2CC(F)(F)C(C)(C)[C@H]2C(=O)NCc2ccccc2F)c1` the same measures were below 0.1 nM and 6.7 nM.
Turning to `CC[C@@H](COC)NC(=O)[C@H]1N(C(=O)[C@@H](O)[C@H](Cc2ccccc2)NC(=O)c2cc(C)cc(O)c2C)CC(F)(F)C1(C)C`, the Ki at HIV-1 protease was below 0.1 nM. In addition, the EC50 in the assay on HIV-1 (setting [1]) is 30 nM.
Take `CCNC(=O)[C@H]1N(C(=O)[C@@H](O)[C@H](Cc2ccccc2)NC(=O)c2c(C)ccc(O)c2C)CC(F)(F)C1(C)C`: at HIV-1 protease, the Ki was below 0.1 nM. Moreover, the EC50 in the assay with HIV-1 (setting [1]) was 35 nM.
As to `CCC(C)NC(=O)[C@H]1N(C(=O)[C@@H](O)[C@H](Cc2ccccc2)NC(=O)c2cccc(O)c2C)CC(F)(F)C1(C)C` (stereo partly drawn), the Ki on HIV-1 protease was below 0.1 nM. Besides, the EC50 in the assay on HIV-1 (setting [1]) came out at 31 nM.
For `CCC(C)NC(=O)C1N(C(=O)C(O)C(Cc2ccccc2)NC(=O)c2cc(C)cc(O)c2C)CC(F)(F)C1(C)C` (stereo not drawn) the same measures were below 0.1 nM and 16 nM.
For `Cc1ccc(O)c(C)c1C(=O)N[C@@H](Cc1ccccc1)[C@H](O)C(=O)N1CC(F)(F)C(C)(C)[C@H]1C(=O)NCC(C)C` the same measures were below 0.1 nM and 44 nM.
For `CCCNC(=O)[C@H]1N(C(=O)[C@@H](O)[C@H](Cc2ccccc2)NC(=O)c2c(C)ccc(O)c2C)CC(F)(F)C1(C)C`, in that order: below 0.1 nM and 33 nM.
For `C=CCNC(=O)[C@H]1N(C(=O)[C@@H](O)[C@H](Cc2cccc(F)c2)NC(=O)c2cccc3c2CCN3)CC(F)(F)C1(C)C`, the Ki at HIV-1 protease is below 0.1 nM. Besides, the EC50 in the assay on HIV-1 (setting [1]) is 35 nM.
`Cc1cc(O)c(C)c(C(=O)N[C@@H](Cc2ccccc2)[C@H](O)C(=O)N2CC(F)(F)C(C)(C)C2C(=O)NCC(C)C)c1` (stereo partly drawn): the inhibition constant (Ki) on HIV-1 protease is below 0.1 nM. In addition, in the assay on HIV-1 (setting [1]), the EC50 was 31 nM.
For `CC(C)CNC(=O)[C@H]1N(C(=O)[C@@H](O)[C@H](Cc2ccccc2)NC(=O)c2cccc3c2CCN3)CC(F)(F)C1(C)C`, in that order: below 0.1 nM and 35 nM.
Consider `Cc1cc(O)c(C)c(C(=O)N[C@@H](Cc2cccc(F)c2)[C@H](O)C(=O)N2CC(F)(F)C(C)(C)C2C(=O)NCC(C)C)c1` (stereo partly drawn), for which, on HIV-1 protease, the Ki was below 0.1 nM. In addition, in the assay on HIV-1 (setting [1]), the EC50 was 11 nM.
For the molecule `Cc1c(O)cccc1C(=O)N[C@@H](Cc1cccc(F)c1)[C@H](O)C(=O)N1CC(F)(F)C(C)(C)C1C(=O)NCC(C)C` (stereo partly drawn), the Ki at HIV-1 protease is below 0.1 nM. Moreover, the EC50 with HIV-1 (setting [1]) was 13 nM.
For `CC(C)CNC(=O)[C@H]1N(C(=O)[C@@H](O)[C@H](Cc2cccc(F)c2)NC(=O)c2cccc3c2CCN3)CC(F)(F)C1(C)C`, in that order: below 0.1 nM and 42 nM.
For `CCCCNC(=O)[C@H]1N(C(=O)[C@@H](O)[C@H](Cc2cccc(F)c2)NC(=O)c2cccc(O)c2C)CC(F)(F)C1(C)C`, in that order: below 0.1 nM and 32 nM.
For `Cc1cc(O)c(C)c(C(=O)N[C@@H](Cc2cccc(F)c2)[C@H](O)C(=O)N2CC(F)(F)C(C)(C)[C@H]2C(=O)NCC(F)(F)F)c1` the same measures were below 0.1 nM and 14 nM.
In the case of `Cc1c(O)cccc1C(=O)N[C@@H](Cc1cccc(F)c1)[C@H](O)C(=O)N1CC(F)(F)C(C)[C@H]1C(=O)NCC(F)(F)F` (stereo partly drawn), on HIV-1 protease, the Ki was below 0.1 nM. For the same molecule, in the assay on HIV-1 (setting [1]), the EC50 is 10 nM.
For `COC[C@H](C)NC(=O)[C@H]1N(C(=O)[C@@H](O)[C@H](Cc2cccc(F)c2)NC(=O)c2cccc(O)c2C)CC(F)(F)C1(C)C`, in that order: below 0.1 nM and 100 nM.
For `Cc1c(O)cccc1C(=O)N[C@@H](Cc1ccccc1)[C@H](O)C(=O)N1CC(F)(F)C(C)(C)[C@H]1C(=O)NCc1ccncc1` the same measures were below 0.1 nM and 130 nM.
For `Cc1cc(O)c(C)c(C(=O)N[C@@H](Cc2ccccc2)[C@H](O)C(=O)N2CC(F)(F)C(C)(C)[C@H]2C(=O)NCc2ccncc2)c1` the same measures were 0.26 nM and 110 nM.
As for `CCCNC(=O)[C@H]1N(C(=O)[C@@H](O)[C@H](Cc2cccc(F)c2)NC(=O)c2cc(C)cc(O)c2C)CC(F)(F)C1(C)C`, on HIV-1 protease, the Ki was below 0.1 nM. In the assay on HIV-1 (setting [1]), the EC50 is 14 nM.
For `Cc1c(O)cccc1C(=O)N[C@@H](Cc1ccccc1)[C@H](O)C(=O)N1CC(F)(F)C(C)(C)[C@H]1C(=O)NCC(C)(C)C`, in that order: below 0.1 nM and 4.7 nM.
`Cc1c(O)cccc1C(=O)N[C@@H](Cc1ccccc1)[C@H](O)C(=O)N1CC(F)(F)C(C)(C)[C@H]1C(=O)NCc1ccccc1F`: the Ki on HIV-1 protease was below 0.1 nM. In addition, in the assay on HIV-1 (setting [1]), the EC50 worked out at 16 nM.
For `C=CCNC(=O)[C@H]1N(C(=O)[C@@H](O)[C@H](Cc2ccccc2)NC(=O)c2cccc(O)c2C)CC(O)C1(C)C` (stereo partly drawn), in that order: 3.6 nM and 470 nM.
For `Cc1c(O)cccc1C(=O)N[C@@H](Cc1ccccc1)[C@H](O)C(=O)N1CC(O)C(C)(C)[C@H]1C(=O)NCC(C)C` (stereo partly drawn), in that order: 0.7 nM and 450 nM.
As to `Cc1ccccc1CNC(=O)[C@H]1N(C(=O)[C@@H](O)[C@H](Cc2ccccc2)NC(=O)c2cccc(O)c2C)CC(O)C1(C)C` (stereo partly drawn), on HIV-1 protease, the Ki is below 0.1 nM. Also, the EC50 in the assay on HIV-1 (setting [1]) is 140 nM.
Consider `CCCNC(=O)[C@H]1N(C(=O)[C@@H](O)[C@H](Cc2ccccc2)NC(=O)c2cc(C)cc(O)c2C)CC(F)(F)C1(C)C` [Example D14, (S)-4,4-Difluoro-1-1-[(2S,3S)-2-hydroxy-3-(3-hydroxy-2,5-dimethyl-benzoylamino)-4-phenyl-butyryl]-3,3-dimethyl-pyrrolidine-2-carboxylic acid propylamide], for which the EC50 with HIV-1 (setting [2]) came to 9 nM.
The same measure, in the same setting: then `Cc1cc(O)c(C)c(C(=O)N[C@@H](Cc2ccccc2)[C@H](O)C(=O)N2CC(F)(F)C(C)(C)[C@H]2C(=O)NCC(C)C)c1` [Example D15, (S)-4,4-Difluoro-1-1-[(2S,3S)-2-hydroxy-3-(3-hydroxy-2,5-dimethyl-benzoylamino)-4-phenyl-butyryl]-3,3-dimethyl-pyrrolidine-2-carboxylic acid isobutyl-amide], with 11 nM.
